According to ChEMBL document CHEMBL1909046, “DrugMatrix in vitro pharmacology data”:

Assays:
D(4) dopamine receptor = target: T1, D(4) dopamine receptor (Homo sapiens, UniProt P21917); experiment: DRUGMATRIX: Dopamine D4.2 radioligand binding (ligand: [3H] Spiperone); assay type: cell membranes, CHO-K1, Membrane; settings: cho-k1; Not Active = under 50% inhibition at 10 µM
T1 sequence (P21917 whole entry): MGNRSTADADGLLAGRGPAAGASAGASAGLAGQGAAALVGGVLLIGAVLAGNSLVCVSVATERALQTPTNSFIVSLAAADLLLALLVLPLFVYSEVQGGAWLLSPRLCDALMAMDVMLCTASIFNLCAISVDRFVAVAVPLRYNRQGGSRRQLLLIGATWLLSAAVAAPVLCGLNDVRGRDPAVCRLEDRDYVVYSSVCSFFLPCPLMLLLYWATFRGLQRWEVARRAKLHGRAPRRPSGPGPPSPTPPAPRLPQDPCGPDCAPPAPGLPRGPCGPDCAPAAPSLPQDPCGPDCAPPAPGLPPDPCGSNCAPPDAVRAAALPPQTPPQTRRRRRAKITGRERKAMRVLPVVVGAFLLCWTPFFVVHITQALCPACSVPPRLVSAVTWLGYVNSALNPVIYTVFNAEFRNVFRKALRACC

[1] = DRUGMATRIX: Phorbol Ester radioligand binding (ligand: [3H] PDBu); assay type: cell membranes, Mus musculus, ICR, Brain, Membrane; settings: Not Active = under 50% inhibition at 10 µM
[2] = DRUGMATRIX: Phosphodiesterase PDE4 enzyme inhibition (substrate: [3H]cAMP + cAMP); settings: u-937; Not Active = under 50% inhibition at 10 µM
[3] = DRUGMATRIX: Potassium Channel [KATP] radioligand binding (ligand: [3H] Glyburide); assay type: cell membranes, Membrane; settings: hit-t15; Not Active = under 50% inhibition at 10 µM
[4] = target: Prostaglandin G/H synthase 1 (Homo sapiens, UniProt P23219); experiment: biochemical; assay type: tissue-based, Platelet; settings: platelet;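 note: inhibition of COX-1 enzyme activity, with arachidonic acid supplied as substrate; in other assays of this panel Not Active means under 50% inhibition at 10 µM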
Cytochrome P450 1A2 = target: T2, Cytochrome P450 1A2 (Homo sapiens, UniProt P05177); settings: bti-tn-5b1-4; note: in other assays of this panel Not Active means under 50% inhibition at 10 µM
T2 sequence (P05177 whole entry): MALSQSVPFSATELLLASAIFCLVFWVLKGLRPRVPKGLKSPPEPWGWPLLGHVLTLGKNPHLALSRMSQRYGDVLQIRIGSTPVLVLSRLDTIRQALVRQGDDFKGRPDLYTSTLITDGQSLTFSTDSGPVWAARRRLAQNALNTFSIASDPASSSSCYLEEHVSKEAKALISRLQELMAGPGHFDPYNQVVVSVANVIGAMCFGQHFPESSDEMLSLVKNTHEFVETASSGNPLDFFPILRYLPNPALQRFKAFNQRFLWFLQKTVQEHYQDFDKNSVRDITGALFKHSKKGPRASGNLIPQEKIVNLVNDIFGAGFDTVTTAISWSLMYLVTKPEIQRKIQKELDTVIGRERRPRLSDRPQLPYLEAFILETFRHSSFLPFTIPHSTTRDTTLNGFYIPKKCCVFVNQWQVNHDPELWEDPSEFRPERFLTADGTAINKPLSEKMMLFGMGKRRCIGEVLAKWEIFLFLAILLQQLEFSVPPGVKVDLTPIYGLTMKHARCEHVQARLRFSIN

[5] = target: C-C chemokine receptor type 2 (Homo sapiens, UniProt P41597); assay type: cell membranes, Membrane; settings: cho-k1; note: in other assays of this panel Not Active means under 50% inhibition at 10 µM
Chain of C-C chemokine receptor type 2 (P41597 whole entry): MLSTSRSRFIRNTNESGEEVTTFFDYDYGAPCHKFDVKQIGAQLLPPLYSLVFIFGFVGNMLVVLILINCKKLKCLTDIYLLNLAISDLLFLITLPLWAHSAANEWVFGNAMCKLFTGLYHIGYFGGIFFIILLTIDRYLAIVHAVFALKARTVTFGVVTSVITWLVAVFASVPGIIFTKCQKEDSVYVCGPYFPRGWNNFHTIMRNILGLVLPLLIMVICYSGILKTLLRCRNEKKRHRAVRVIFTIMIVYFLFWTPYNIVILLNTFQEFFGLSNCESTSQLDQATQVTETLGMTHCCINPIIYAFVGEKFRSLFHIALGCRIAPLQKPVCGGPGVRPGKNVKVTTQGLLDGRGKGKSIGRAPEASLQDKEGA

Chain of Prostaglandin G/H synthase 1 (P23219 whole entry): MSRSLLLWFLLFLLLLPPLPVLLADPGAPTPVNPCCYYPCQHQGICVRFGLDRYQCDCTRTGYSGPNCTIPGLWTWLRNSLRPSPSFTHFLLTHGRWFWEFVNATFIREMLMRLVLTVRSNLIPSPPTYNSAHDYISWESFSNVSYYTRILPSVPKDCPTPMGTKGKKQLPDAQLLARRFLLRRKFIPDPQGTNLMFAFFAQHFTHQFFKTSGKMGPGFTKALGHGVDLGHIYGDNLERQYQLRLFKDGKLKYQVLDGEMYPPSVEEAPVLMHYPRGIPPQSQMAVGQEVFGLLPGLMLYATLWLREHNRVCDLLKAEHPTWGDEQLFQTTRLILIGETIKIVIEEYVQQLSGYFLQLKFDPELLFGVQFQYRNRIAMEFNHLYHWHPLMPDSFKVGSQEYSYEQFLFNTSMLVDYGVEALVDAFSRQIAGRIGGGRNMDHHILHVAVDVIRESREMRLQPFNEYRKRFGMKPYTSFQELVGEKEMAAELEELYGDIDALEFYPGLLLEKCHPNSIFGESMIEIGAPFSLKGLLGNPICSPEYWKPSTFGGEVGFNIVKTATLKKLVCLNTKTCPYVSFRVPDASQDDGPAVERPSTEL

Cc1c(O)cccc1C(=O)N[C@@H](CSc1ccccc1)[C@H](O)CN1C[C@H]2CCCC[C@H]2C[C@H]1C(=O)NC(C)(C)C
Not Active: IC50 (D(4) dopamine receptor) | IC50 [1] | Ki [1] | IC50 [2] | Ki [2] | IC50 [3] | Ki [3] | IC50 [4] | IC50 (Cytochrome P450 1A2) | Ki (Cytochrome P450 1A2) | IC50 [5]

CC(O)COC[C@H]1O[C@@H]2O[C@H]3[C@H](O)[C@@H](O)[C@@H](O[C@H]4[C@H](O)[C@@H](O)[C@@H](O[C@H]5[C@H](O)[C@@H](O)[C@@H](O[C@H]6[C@H](O)[C@@H](O)[C@@H](O[C@H]7[C@H](O)[C@@H](O)[C@@H](O[C@H]8[C@H](O)[C@@H](O)[C@@H](O[C@H]1[C@H](O)[C@H]2O)O[C@@H]8COCC(C)O)O[C@@H]7COCC(C)O)O[C@@H]6COCC(C)O)O[C@@H]5COCC(C)O)O[C@@H]4COCC(C)O)O[C@@H]3COCC(C)O (stereo partly drawn) [2-HYDROXYPROPYL-BETA-CYCLODEXTRIN]
Not Active: IC50 (D(4) dopamine receptor) | IC50 [1] | Ki [1] | IC50 [2] | Ki [2] | IC50 [3] | Ki [3] | IC50 [4] | IC50 (Cytochrome P450 1A2) | Ki (Cytochrome P450 1A2) | IC50 [5]

NC(=O)c1cccc(N)c1 [3-AMINOBENZAMIDE]
Not Active: IC50 (D(4) dopamine receptor) | IC50 [1] | Ki [1] | IC50 [2] | Ki [2] | IC50 [3] | Ki [3] | IC50 [4] | IC50 (Cytochrome P450 1A2) | Ki (Cytochrome P450 1A2) | IC50 [5]

C[C@H]1O[C@H](O[C@H]2[C@H](O)[C@@H](O)[C@@H](O[C@H]3[C@H](O)[C@@H](O)C(O)O[C@@H]3CO)O[C@@H]2CO)[C@H](O)[C@@H](O)[C@@H]1N[C@H]1C=C(CO)[C@@H](O)[C@H](O)[C@H]1O (stereo partly drawn) [ACARBOSE]
Not Active: IC50 (D(4) dopamine receptor) | IC50 [1] | Ki [1] | IC50 [2] | Ki [2] | IC50 [3] | Ki [3] | IC50 [4] | IC50 (Cytochrome P450 1A2) | Ki (Cytochrome P450 1A2) | IC50 [5]

CC[C@H]1[C@@H]2C[C@H]3[C@@H]4N(C)c5ccccc5[C@]45C[C@@H]([C@@H]2[C@H]5O)N3[C@@H]1O [AJMALINE]
Not Active: IC50 (D(4) dopamine receptor) | IC50 [1] | Ki [1] | IC50 [2] | Ki [2] | IC50 [3] | Ki [3] | IC50 [4] | IC50 (Cytochrome P450 1A2) | Ki (Cytochrome P450 1A2) | IC50 [5]

NCCCNCCSP(=O)(O)O [AMIFOSTINE]
Not Active: IC50 (D(4) dopamine receptor) | IC50 [1] | Ki [1] | IC50 [2] | Ki [2] | IC50 [3] | Ki [3] | IC50 [4] | IC50 (Cytochrome P450 1A2) | Ki (Cytochrome P450 1A2) | IC50 [5]

CN(C)CCC=C1c2ccccc2CCc2ccccc21 [AMITRIPTYLINE]
Not Active: IC50 (D(4) dopamine receptor) | IC50 [1] | Ki [1] | IC50 [2] | Ki [2] | IC50 [3] | Ki [3] | IC50 [4] | IC50 (Cytochrome P450 1A2) | Ki (Cytochrome P450 1A2) | IC50 [5]

CC(=O)OC[C@H]1O[C@@H](n2ncc(=O)[nH]c2=O)[C@H](OC(C)=O)[C@@H]1OC(C)=O [AZARIBINE]
Not Active: IC50 (D(4) dopamine receptor) | IC50 [1] | Ki [1] | IC50 [2] | Ki [2] | IC50 [3] | Ki [3] | IC50 [4] | IC50 (Cytochrome P450 1A2) | Ki (Cytochrome P450 1A2) | IC50 [5]

C[C@H]1[C@H](NC(=O)/C(=N\OC(C)(C)C(=O)O)c2csc(N)n2)C(=O)N1S(=O)(=O)O [AZTREONAM]
Not Active: IC50 (D(4) dopamine receptor) | IC50 [1] | Ki [1] | IC50 [2] | Ki [2] | IC50 [3] | Ki [3] | IC50 [4] | IC50 (Cytochrome P450 1A2) | Ki (Cytochrome P450 1A2) | IC50 [5]

O=C(O)CCNC(=O)c1ccc(/N=N/c2ccc(O)c(C(=O)O)c2)cc1 [BALSALAZIDE]
Not Active: IC50 (D(4) dopamine receptor) | IC50 [1] | Ki [1] | IC50 [2] | Ki [2] | IC50 [3] | Ki [3] | IC50 [4] | IC50 (Cytochrome P450 1A2) | Ki (Cytochrome P450 1A2) | IC50 [5]

COc1cc(OC)c(C(=O)CCCN2CCCC2)c(OC)c1 [BUFLOMEDIL]
Not Active: IC50 (D(4) dopamine receptor) | IC50 [1] | Ki [1] | IC50 [2] | Ki [2] | IC50 [3] | Ki [3] | IC50 [4] | IC50 (Cytochrome P450 1A2) | Ki (Cytochrome P450 1A2) | IC50 [5]

Cn1c(=O)c2c(ncn2C)n(C)c1=O [CAFFEINE]
Not Active: IC50 (D(4) dopamine receptor) | IC50 [1] | Ki [1] | IC50 [2] | Ki [2] | IC50 [3] | Ki [3] | IC50 [4] | IC50 (Cytochrome P450 1A2) | Ki (Cytochrome P450 1A2) | IC50 [5]

ClC(Cl)(Cl)Cl [CARBON TETRACHLORIDE]
Not Active: IC50 (D(4) dopamine receptor) | IC50 [1] | Ki [1] | IC50 [2] | Ki [2] | IC50 [3] | Ki [3] | IC50 [4] | IC50 (Cytochrome P450 1A2) | Ki (Cytochrome P450 1A2) | IC50 [5]
